Tests used:
[1] = target: recombinant human GST-Syk (Homo sapiens (Human), UniProt P43405); test: Homogeneous Time-Resolved Fluorescence (HTRF) assay for the recombinant human Syk enzyme; type: biochemical; conditions: 10-dose titration 10 μM to 0.508 nM; 25 μM ATP; values below lowest test concentration given as <0.508
Procedure: Assay 1: Homogeneous Time-Resolved Fluorescence (HTRF) Assay for the Recombinant Human Syk Enzyme A recombinant GST-hSyk fusion protein was used to measure potency of compounds to inhibit human Syk activity. The recombinant human GST-Syk (Carna Biosciences #08-176) (5 pM final concentration total protein) was incubated with various concentrations of the inhibitor diluted in DMSO (0.1% final concentration) for 10 minutes at room temperature in 15 mM Tris-HCl (pH 7.5), 0.01% Tween 20, 2 mM DTT in 384 well plate format. To initiate the reaction the biotinylated substrate peptide (250 nM final concentration) that contains the phosphorylation site for Syk was added with magnesium (5 mM final concentration) and ATP (25 μM final concentration). The final volume of the reaction was 10 μL. Phosphorylation of the peptide was allowed to proceed for 45′ at room temperature. To quench the reaction and detect the phosphorylated product, 2 nM of a Europium-anti-phosphotyrosine antibody (Perkin Elmer #AD0161) and 70 nM SA-APC (Perkin-Elmer #CR130-100) were added together in 15 mM Tris pH 7.5, 40 mM EDTA, 0.01% Tween 20. The final volume of the quenching solution was 10 μL. The resulting HTRF signal was measured after 30 minutes on a EnVision (Perkin-Elmer) reader using a time-resolved fluorescence protocol. […] Table A provides the IC50 values for representative compounds of the invention.

[2] = target: phosphorylated Syk enzyme (Homo sapiens (Human), UniProt P43405); test: Dissociation rate: enzyme-inhibitor dilution and activity recovery assay (TR-FRET); type: biochemical; conditions: for recovery of Syk enzyme activity following dilution of the inhibitor:Syk complex (relative to the DMSO control): 100-fold dilution after 2 hours preincubation, FIG. 1 and FIG. 2
Procedure: Assay 2: Determination of the Dissociation Rate for Compound 1B
The dissociation rate (koff) of inhibitor:phosphorylated Syk complexes was examined using an enzyme-inhibitor dilution and activity recovery assay (R. A. Copeland, Enzymes: A practical introduction to structure, Mechanism, and Data Analysis Wiley-VCH 2000 and R. A. Copeland, Evaluation of Enzyme Inhibitors in Drug Discovery John Wiley & Sons, 2005). In this assay the recovery of kinase activity following dilution is measured using a time resolved fluorescence resonance energy transfer (TR-FRET) assay. The enzyme (at 100× the usual assay concentration) and inhibitor (at 20× the usual assay concentration) are preincubated for 2 hours to ensure equilibrium is reached. The samples are then diluted 100-fold into assay buffer (1× Kinase buffer [Invitrogen, Inc], 2 mM DTT, 0.05% BSA) containing a saturating amount of competitive substrate (1 mM ATP, to minimize rebinding of inhibitor) and peptide substrate (1 μM). The final nominal enzyme concentration following dilution is 4 pM. Samples (1 μL) are periodically withdrawn from the assay plate and transferred into 50 uL of detection/quench buffer (10 nM streptavidin labeled Dylite (Perkin Elmer) and 3 nM Eu-labeled antiphosphotyrosine antibody (pY20, Perkin Elmer). After 30 minutes incubation, the assay plate was read on the Envision reader (Perkin Elmer) using the following parameters: excitation wavelength of 320 nm, and dual emission monitoring at 616 and 665 nm. The delay time was 20 μs with a 200 μs window time. The time between flashes was 16600 μs and 20 flashes were used per well.
The recovery of enzyme activity is fit to the following equation (Morrison, J. F., and Walsh, C. T., (1988) Advances in Enzymology and Related Areas of Molecular Biology, 61 201-301): P=vst+[(vi−vs)/kobs][1−exp(−kobst)]+P0 where P is the quantity of phosphorylated peptide product produced, P0 is the concentration of phosphopeptide product present at time=0 (immediately following dilution), vs is the steady-state velocity, vi is the rate at time=0, and kobs is the rate constant describing activity recovery.

[3] = tested on: allergic rhinitis; conditions: dosed intranasally, phase I/II study; cited from earlier work
[4] = tested on: allergic rhinitis; conditions: phase II clinical trial; cited from earlier work

SMILES | IC50 [1] [nM] | recovery of Syk enzyme activity following dilution of the inhibitor:Syk complex (relative to the DMSO control) [2] | also measured
Oc1cccc(Nc2ncc(F)c(Nc3cccc(O)c3)n2)c1 [Compound R112] |  |  | PGD2 [3]: statistically significant decrease; clinical safety [3]: safe across a range of indicators; efficacy versus placebo [4]: lack of efficacy
Cc1cc(Nc2nccc(C(F)(F)F)n2)cc(-c2cnc([C@@]3(O)CCCc4cc(C(=O)O)ccc43)s2)c1 [Compound 1B, (R)-5-hydroxy-5-(5-(3-methyl-5-((4-(trifluoromethyl)pyrimidin-2-yl)amino)phenyl)thiazol-2-yl)-5,6,7,8-tetrahydronaphthalene-2-carboxylic acid] | < 0.508 | only a fraction of the activity returned (relative to the DMSO control) after two hours | dissociation rate of the inhibitor:phosphorylated Syk complex [2]: slow dissociation rate; half-life of the inhibitor:Syk complex ([2]; after 100-fold dilution into 1 mM ATP, FIG. 2): > 2 h

The next lines start with results.

IC50 [1] [nM] | SMILES | recovery of Syk enzyme activity following dilution of the inhibitor:Syk complex (relative to the DMSO control) [2] | also measured
1.6 | Cc1cc(Nc2nccc(C(F)(F)F)n2)cc(-c2cnc([C@]3(O)CCCc4cc(C(=O)O)ccc43)s2)c1 [Compound 1A, (S)-5-hydroxy-5-(5-(3-methyl-5-((4-(trifluoromethyl)pyrimidin-2-yl)amino)phenyl)thiazol-2-yl)-5,6,7,8-tetrahydronaphthalene-2-carboxylic acid] |  | 
< 0.508 | Cc1cc(Nc2nccc(C(C)C)n2)cc(-c2cnc([C@]3(O)CC[C@@H](C(=O)O)CC3)s2)c1 [Compound A, reference compound] | fully recovered (relative to the DMSO control) within the first five minutes after dilution | 
< 0.508 | Cc1cc(Nc2nccc(C(F)(F)F)n2)cc(-c2cnc(C3(O)CCCc4cc(C(=O)O)ccc43)s2)c1 (racemic) [Compound 1, 5-hydroxy-5-(5-(3-methyl-5-((4-(trifluoromethyl)pyrimidin-2-yl)amino)phenyl)thiazol-2-yl)-5,6,7,8-tetrahydronaphthalene-2-carboxylic acid] |  | 

From patent US9624210B2, “Amino-pyrimidine-containing spleen tyrosine kinase (Syk) inhibitors” (Merck Sharp & Dohme Corp., priority 2012, dated 2017)
